These results are taken from patent US7279494B2, “Antimicrobial [3.1.0] bicyclohexylphenyl-oxazolidinone derivatives and analogues” (Pfizer Inc., priority 2003, dated 2007).

Each structure is given as a SMILES string. In brackets after ≈: the same amount, converted by molar mass. Like-named read-outs stand apart in the source and are kept apart here.

What all share (format): cell-based
In one experiment the test system is S. aureus UC9213. Put plainly: MIC by standard agar dilution, S. aureus UC9213. As to conditions: Staphylococcus aureus, UC9213, Mueller Hinton agar, incubated overnight at 35° C. The text has this:
(§1) The in vitro activity of compounds of the subject invention may be assessed by standard testing procedures such as the determination of minimum inhibitory concentration (MIC) by agar dilution as described in “Approved Standard. Methods for Dilution Antimicrobial Susceptibility Tests for Bacteria that Grow Aerobically,” 3rd ed., published 1993 by the National Committee for Clinical Laboratory standards, Villanova, Pa., USA.
(§2) The in vitro MICs of test compounds may be determined by a standard agar dilution method. A stock drug solution of each analog is prepared in a preferred solvent, usually DMSO:H2O (1:3). Serial 2-fold dilutions of each sample are made using 1.0 mL aliquots of sterile distilled water. To each 1.0 mL aliquot of drug is added 9 mL of molten Mueller Hinton agar medium. The drug-supplemented agar is mixed, poured into 15×100 mm petri dishes, and allowed to solidify and dry prior to inoculation.
(§3) Vials of each of the test organisms are maintained frozen in the vapor phase of a liquid nitrogen freezer. Test cultures are grown overnight at 35° C. on the medium appropriate for the organism. Colonies are harvested with a sterile swab, and cell suspensions are prepared in Trypticase Soy broth (TSB) to equal the turbidity of a 0.5 McFarland standard. A 1:20 dilution of each suspension is made in TSB. The plates containing the drug supplemented agar are inoculated with a 0.001 mL drop of the cell suspension using a Steers replicator, yielding approximately 10^4 to 10^5 cells per spot. The plates are incubated overnight at 35° C.
(§4) Following incubation the Minimum Inhibitory Concentration (MIC μg/mL), the lowest concentration of drug that inhibits visible growth of the organism, is read and recorded.

Another experiment concerns H. influenzae 30063. Put plainly: MIC by standard agar dilution, H. influenzae 30063.
Excerpt: as §1, §2, §3, §4
On the technique in general: In agar dilution the substance is mixed into plates at graded concentrations.

Another experiment has as its system S. pneumoniae UC9912. Put plainly: MIC by standard agar dilution, S. pneumoniae UC9912. The following applies: Streptococcus pneumoniae, UC9912, Mueller Hinton agar, incubated overnight at 35° C.
Excerpt: as §1, §2, §3, §4

Setting [1] is: Haemophilus influenzae, 30063, agar dilution, Mueller Hinton agar, incubated overnight at 35° C., read-out: H. influenzae 30063 MIC.

With `CC(=O)NC[C@H]1CN(c2ccc([C@H]3[C@@H]4CS(=O)(=O)C[C@@H]43)cc2)C(=O)O1` [Example 19, N-[((5S)-3-{4-[exo-(1R,5S)-3,3-dioxido-3-thiabicyclo[3.1.0]hex-6-yl]phenyl}-2-oxo-1,3-oxazolidin-5-yl)methyl]acetamide], the MIC in the experiment with S. aureus UC9213 came to 4 µg/mL (≈ 11 µM); in the experiment on H. influenzae 30063 (setting [1]), 8 µg/mL (≈ 22 µM); against S. pneumoniae UC9912 it was 1 µg/mL (≈ 2.74 µM).

Turning to `NC(=O)[C@H]1CN(c2ccc([C@H]3[C@@H]4CS(=O)(=O)C[C@@H]43)c(F)c2)C(=O)O1` [Example 20, (5R)-3-{4-[exo-(1R,5S)-3,3-dioxido-3-thiabicyclo[3.1.0]hex-6-yl]-3-fluorophenyl}-2-oxo-1,3-oxazolidine-5-carboxamide], the figures for the MIC in the experiment with S. aureus UC9213, in the experiment with H. influenzae 30063 (setting [1]) and against S. pneumoniae UC9912 were 2 µg/mL (≈ 5.64 µM), greater than 64 µg/mL and 2 µg/mL (≈ 5.64 µM), respectively. In the experiment with H. influenzae 30063 (agar dilution, Mueller Hinton agar, incubated overnight at 35° C.), the “H. influenzae 30063 MIC” value was greater than 64 µg/mL.

As to `CCC(=O)NC[C@H]1CN(c2ccc([C@H]3[C@@H]4CNC[C@@H]43)c(F)c2)C(=O)O1` [Example 21, N-[((5S)-3-{4-[exo-(1R,5S)-3-azabicyclo[3.1.0]hex-6-yl]-3-fluorophenyl}-2-oxo-1,3-oxazolidin-5-yl)methyl]proyanamide], the results for the MIC with S. aureus UC9213, with H. influenzae 30063 (setting [1]) and against S. pneumoniae UC9912 were 4 µg/mL (≈ 11.5 µM), 8 µg/mL (≈ 23 µM) and 1 µg/mL (≈ 2.88 µM), respectively.

Take `CCC(=O)NC[C@H]1CN(c2ccc([C@H]3[C@@H]4CN(C=O)C[C@@H]43)c(F)c2)C(=O)O1` [Example 22, N-[((5S)-3-{3-fluoro-4-[exo-(1R,5S)-3-formyl-3-azabicyclo[3.1.0]hex-6-yl]phenyl}-2-oxo-1,3-oxazolidin-5-yl)methyl]propanamide]: the MIC amounted to 1 µg/mL (≈ 2.66 µM) with S. aureus UC9213, 8 µg/mL (≈ 21.3 µM) in the experiment on H. influenzae 30063 (setting [1]) and 0.5 µg/mL (≈ 1.33 µM) against S. pneumoniae UC9912.

For the compound `CCC(=O)NC[C@H]1CN(c2ccc([C@H]3[C@@H]4CN(C(N)=O)C[C@@H]43)c(F)c2)C(=O)O1` [Example 23, exo-(1R,5S)-6-(4-{(5S)-5-[(propanoylamino)methyl]-2-oxo-1,3-oxazolidin-3-yl}-2-fluorophenyl)-3-azabicyclo[3.1.0]hexane-3-carboxamide], the MIC against S. aureus UC9213 stood at 1 µg/mL (≈ 2.56 µM); in the experiment with H. influenzae 30063 (setting [1]), 4 µg/mL (≈ 10.2 µM); against S. pneumoniae UC9912, 0.25 µg/mL (≈ 0.64 µM).

As for `CCC(=O)NC[C@H]1CN(c2ccc([C@H]3[C@@H]4CN(C(=O)NC)C[C@@H]43)c(F)c2)C(=O)O1` [Example 24, exo-(1R,5S)-6-(4-{(5S)-5-[(propanoylamino)methyl]-2-oxo-1,3-oxazolidin-3-yl]-2-fluorophenyl)-3-azabicyclo[3.1.0]hexane-3-methylcarboxamide], the MIC against S. aureus UC9213 was determined as 4 µg/mL (≈ 9.89 µM); in the experiment on H. influenzae 30063 (setting [1]) it was 16 µg/mL (≈ 39.6 µM); with S. pneumoniae UC9912, 2 µg/mL (≈ 4.95 µM).

With `CCNC(=O)N1C[C@@H]2[C@H](C1)[C@H]2c1ccc(N2C[C@H](CNC(=O)CC)OC2=O)cc1F` [Example 25, exo-(1R,5S)-6-(4-{(5S)-5-[(propanoylamino)methyl]-2-oxo-1,3-oxazolidin-3-yl}-2-fluorophenyl)-3-azabicyclo[3.1.0]hexane-3-ethylcarboxamide], the MIC is 8 µg/mL (≈ 19.1 µM) in the experiment with S. aureus UC9213, 32 µg/mL (≈ 76.5 µM) with H. influenzae 30063 (setting [1]) and 4 µg/mL (≈ 9.56 µM) with S. pneumoniae UC9912.

Turning to `CCC(=O)NC[C@H]1CN(c2ccc([C@H]3[C@@H]4CN(C(=O)CO)C[C@@H]43)c(F)c2)C(=O)O1` [Example 26, N-[((5S)-3-{3-fluoro-4-[exo-(1R,5S)-3-glycoloyl-3-azabicyclo[3.1.0]hex-6-yl]phenyl}-2-oxo-1,3-oxazolidin-5-yl)methyl]propanamide], the results for the MIC in the experiment with S. aureus UC9213, in the experiment with H. influenzae 30063 (setting [1]) and in the experiment with S. pneumoniae UC9912 were 1 µg/mL (≈ 2.47 µM), 4 µg/mL (≈ 9.87 µM) and 0.5 µg/mL (≈ 1.23 µM), respectively.

Take `CCC(=O)NC[C@H]1CN(c2ccc([C@H]3[C@@H]4CN(C(=O)COC)C[C@@H]43)c(F)c2)C(=O)O1` [Example 27, N-[((5S)-3-{3-fluoro-4-[exo-(1R,5S)-3-methoxyacetyl-3-azabicyclo[3.1.0]hex-6-yl]phenayl}-2-oxo-1,3-oxazolidin-5-yl)methyl]propanamide]: the results for the MIC against S. aureus UC9213, with H. influenzae 30063 (setting [1]) and against S. pneumoniae UC9912 were 2 µg/mL (≈ 4.77 µM), 8 µg/mL (≈ 19.1 µM) and 0.5 µg/mL (≈ 1.19 µM), respectively.

Take `CCC(=O)NC[C@H]1CN(c2ccc([C@H]3[C@@H]4CN(C(=O)[C@@H](O)CO)C[C@@H]43)c(F)c2)C(=O)O1` [Example 28, N-[((5S)-3-{3-fluoro-4-[exo-(1R,5S)-3-((2S)-2,3-dihydroxypropanoyl)-3-azabicyclo[3.1.0]hex-6-yl]phenyl}-2-oxo-1,3-oxazolidin-5-yl)methyl]propanamide]: the values for the MIC with S. aureus UC9213, in the experiment on H. influenzae 30063 (setting [1]) and in the experiment with S. pneumoniae UC9912 were 4 µg/mL (≈ 9.19 µM), 8 µg/mL (≈ 18.4 µM) and 4 µg/mL (≈ 9.19 µM), respectively.

Turning to `CC(=O)NC[C@H]1CN(c2ccc([C@H]3[C@@H]4CN(C(=O)[C@H](C)O)C[C@@H]43)c(F)c2)C(=O)O1` [Example 29, N-[((5S)-3-{3-fluoro-4-[exo-(1R, 5S)-3-(2-(S)-hydroxypropanoyl)-3-azabicyclo[3.1.0]hex-6-yl]phenyl}-2-oxo-1,3-oxazolidin-5-yl)methyl]acetamide], the MIC in the experiment with S. aureus UC9213 is 4 µg/mL (≈ 9.87 µM); with H. influenzae 30063 (setting [1]), 16 µg/mL (≈ 39.5 µM); against S. pneumoniae UC9912, 2 µg/mL (≈ 4.93 µM).

As for `CC(=O)NC[C@H]1CN(c2ccc([C@H]3[C@@H]4CN(C(=O)C5CC5)C[C@@H]43)c(F)c2)C(=O)O1` [Example 30, N-[((5S)-3-{3-fluoro-4-[exo-(1R,5S)-3-cyclopropanecarbonyl-3-azabicyclo[3.1.0]hex-6-yl]phenyl}-2-oxo-1,3-oxazolidin-5-yl)methyl]acetamide], the MIC in the experiment with S. aureus UC9213 was determined as 4 µg/mL (≈ 9.96 µM); in the experiment with H. influenzae 30063 (setting [1]), 16 µg/mL (≈ 39.9 µM); in the experiment on S. pneumoniae UC9912, 4 µg/mL (≈ 9.96 µM).

Turning to `CC(=O)NC[C@H]1CN(c2ccc([C@H]3[C@@H]4CN(C(=O)C5(O)CC5)C[C@@H]43)c(F)c2)C(=O)O1` [Example 31, N-[((5 S)-3-{3-fluoro-4-[exo-(1R,5S)-3-(1-hydroxy-cyclopropanecarbonyl)-3-azabicyclo[3.1.0]hex-6-yl]phenyl}-2-oxo-1,3-oxazolidin-5-yl)methyl]acetamide], the MIC in the experiment on S. aureus UC9213 worked out at 2 µg/mL (≈ 4.79 µM); with H. influenzae 30063 (setting [1]), 16 µg/mL (≈ 38.3 µM); in the experiment with S. pneumoniae UC9912, 2 µg/mL (≈ 4.79 µM).

Take `CC(=O)NC[C@H]1CN(c2ccc([C@H]3[C@@H]4CN(C(=O)C(C)(C)O)C[C@@H]43)c(F)c2)C(=O)O1` [Example 32, N-[((5S)-3-{3-fluoro-4-[exo-(1R,5S)-3-(2-hydroxy-2-methyl-propanoyl)-3-azabicyclo[3.1.0]hex-6-yl]phenyl}-2-oxo-1,3-oxazolidin-5-yl)methyl]acetamide]: the MIC against S. aureus UC9213 was found to be 2 µg/mL (≈ 4.77 µM); in the experiment on H. influenzae 30063 (setting [1]), 8 µg/mL (≈ 19.1 µM); against S. pneumoniae UC9912, 0.5 µg/mL (≈ 1.19 µM).

Regarding `CC(=O)NC[C@H]1CN(c2ccc([C@H]3[C@@H]4CN(C(=O)[C@@H](O)C(F)(F)F)C[C@@H]43)c(F)c2)C(=O)O1` [Example 33, N-[((5S)-3-{3-fluoro-4-[exo-(1R,5S)-3-(3,3,3-trifluoro-2-(S)-hydroxypropanoyl)-3-azabicyclo[3.1.0]hex-6-yl]phenyl}-2-oxo-1,3-oxazolidin-5-yl)methyl]acetamide], the MIC in the experiment on S. aureus UC9213 stood at 2 µg/mL (≈ 4.35 µM); in the experiment on H. influenzae 30063 (setting [1]), 16 µg/mL (≈ 34.8 µM); in the experiment on S. pneumoniae UC9912, 2 µg/mL (≈ 4.35 µM).

Regarding `CC(=O)NC[C@H]1CN(c2ccc([C@H]3[C@@H]4CN(C(=O)C(F)F)C[C@@H]43)c(F)c2)C(=O)O1` [Example 34, N-[((5S)-3-{3-fluoro-4-[exo-(1R,5S)-3-difluoroacetyl-3-azabicyclo[3.1.0]hex-6-yl]phenyl}-2-oxo-1,3-oxazolidin-5-yl)methyl]acetamide], the MIC against S. aureus UC9213 was 2 µg/mL (≈ 4.86 µM); in the experiment with H. influenzae 30063 (Haemophilus influenzae, 30063, read-out: H. influenzae 30063 MIC) it was 8 µg/mL (≈ 19.4 µM); in the experiment with S. pneumoniae UC9912, 1 µg/mL (≈ 2.43 µM).

As to `CC(=O)NC[C@H]1CN(c2ccc([C@H]3[C@@H]4CN(C(=O)CN)C[C@@H]43)c(F)c2)C(=O)O1` [Example 35, N-[((5S)-3-{3-fluoro-4-[exo-(1R,5S)-3-aminoacetyl-3-azabicyclo[3.1.0]hex-6-yl]phenyl}-2-oxo-1,3-oxazolidin-5-yl)methyl]acetamide], the MIC against S. aureus UC9213 was found to be 8 µg/mL (≈ 20.5 µM); with H. influenzae 30063 (setting [1]), 16 µg/mL (≈ 41 µM); in the experiment on S. pneumoniae UC9912 it was 2 µg/mL (≈ 5.12 µM).

Turning to `CC(=O)NCC(=O)N1C[C@@H]2[C@H](C1)[C@H]2c1ccc(N2C[C@H](CNC(C)=O)OC2=O)cc1F` [Example 36, N-[((5S)-3-{3-fluoro-4-[exo-(1R,5S)-3-acetylaminoacetyl-3-azabicyclo[3.1.0]hex-6-yl]phenyl}-2-oxo-1,3-oxazolidin-5-yl)methyl]acetamide], the MIC turned out to be 8 µg/mL (≈ 18.5 µM) in the experiment with S. aureus UC9213, 32 µg/mL (≈ 74 µM) with H. influenzae 30063 (setting [1]) and 4 µg/mL (≈ 9.25 µM) against S. pneumoniae UC9912.

On to `CC(=O)NC[C@H]1CN(c2ccc([C@H]3[C@@H]4CN(C(=O)c5ccno5)C[C@@H]43)c(F)c2)C(=O)O1` [Example 37, N-[((5S)-3-{3-fluoro-4-[exo-(1R,5S)-3-(isoxazole-5-carbonyl)-3-azabicyclo[3.1.0]hex-6-yl]phenyl}-2-oxo-1,3-oxazolidin-5-yl)methyl]acetamide], for which the MIC came to 1 µg/mL (≈ 2.33 µM) in the experiment with S. aureus UC9213, 8 µg/mL (≈ 18.7 µM) with H. influenzae 30063 (setting [1]) and 0.5 µg/mL (≈ 1.17 µM) in the experiment with S. pneumoniae UC9912.
